Assay results: patent US9096615B2, “Bridged bicyclic amino thiazine dioxide compounds as inhibitors of beta-secretase and methods of use thereof” (AMGEN INC., priority 2013, dated 2015)

Tests used:
BACE1 = BACE1 (Homo sapiens, UniProt P56817); assay: In vitro enzymatic BACE FRET assay; assay type: biochemical; conditions: average IC50; read-out: BACE1 Enzyme assay IC50
Method in brief: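 BACE (0.2 nM) pre-incubated 1 h with serially diluted inhibitor in 0.05 M acetate pH 4.2, 10% DMSO, 100 uM genapol; 50 nM FRET peptide substrate added, 1 h incubation. Stopped with Tris to neutral pH; fluorescence read (ex 488, […]).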

[1] = test system: Aβ40 in conditioned medium of cells stably expressing Amyloid Precursor Protein (APP); assay: In vitro BACE cell-based assay (HEK cell assay, Aβ40 sandwich ELISA); conditions: Homo sapiens, HEK293; average IC50; read-out: BACE1 cell assay IC50
Method in brief: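 APP-stable cells were cultured 24 h at 37 °C, then given compound as 10-point dose-response (top 100 μM or 10 μM; 0.1% DMSO final) for 24 h. Aβ40 in conditioned medium was measured by sandwich ELISA (pAb40 capture, biotinylated 6E10 detection, Eu time-resolved fluorescence). IC50 from percent inhibition versus concentration.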

Cathepsin D (Cat D) = target: T1, Cathepsin D (Cat D) (Homo sapiens, UniProt P07339); assay: In vitro enzymatic Cathepsin D (Cat D) FRET assay; assay type: biochemical; conditions: average IC50; first procedure; read-out: CatD IC50
T1 construct: made in house; host or cells: CHO cells
Method in brief: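 Recombinant human Cat D expressed in CHO cells, 9 nM, pre-incubated 1 h with inhibitor in 0.05 M citrate pH 3.5, 10% DMSO, 5 mM CHAPS. Reaction started with 20 nM FRET peptide substrate, run 1 h, stopped with Tris to neutral pH; fluorescence read at ex 500/em 580 nm.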

BACE1, sequence (P56817 46-501, species assumed): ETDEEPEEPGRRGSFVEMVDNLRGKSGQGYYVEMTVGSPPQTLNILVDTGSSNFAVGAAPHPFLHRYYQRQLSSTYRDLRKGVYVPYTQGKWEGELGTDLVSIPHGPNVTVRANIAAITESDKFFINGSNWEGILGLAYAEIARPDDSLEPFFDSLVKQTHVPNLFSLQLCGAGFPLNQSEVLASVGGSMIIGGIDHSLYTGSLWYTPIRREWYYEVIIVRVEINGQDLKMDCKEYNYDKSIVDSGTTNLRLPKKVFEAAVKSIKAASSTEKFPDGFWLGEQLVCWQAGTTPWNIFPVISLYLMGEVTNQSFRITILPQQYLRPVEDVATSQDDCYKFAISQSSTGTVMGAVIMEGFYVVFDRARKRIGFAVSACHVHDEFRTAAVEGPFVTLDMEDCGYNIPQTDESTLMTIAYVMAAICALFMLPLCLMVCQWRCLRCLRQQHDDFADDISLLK
T1 sequence (P07339 65-412, species assumed): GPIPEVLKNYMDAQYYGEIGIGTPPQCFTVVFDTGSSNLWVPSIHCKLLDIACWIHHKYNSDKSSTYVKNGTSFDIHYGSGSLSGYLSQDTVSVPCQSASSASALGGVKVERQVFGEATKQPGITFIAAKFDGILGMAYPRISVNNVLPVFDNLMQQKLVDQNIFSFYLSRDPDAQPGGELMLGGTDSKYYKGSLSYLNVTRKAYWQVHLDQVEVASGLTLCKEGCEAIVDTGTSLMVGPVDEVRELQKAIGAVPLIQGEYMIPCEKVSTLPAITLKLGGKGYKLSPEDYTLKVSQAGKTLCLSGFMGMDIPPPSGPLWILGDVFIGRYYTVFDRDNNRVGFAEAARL

Row | IC50 (BACE1) | IC50 [1] | IC50 (Cathepsin D (Cat D)) | SMILES
1 | 0.225 µM | 0.062 µM | > 348 µM | COc1cnc2c(Nc3ccc(F)c([C@@]4(C)N=C(N)[C@]5(C)CC[C@H]4S5(=O)=O)c3)nccc2n1 [Example 81, N-(3-((1R,2R,5S)-4-amino-2,5-dimethyl-8,8-dioxido-8-thia-3-azabicyclo[3.2.1]oct-3-en-2-yl)-4-fluorophenyl)-2-methoxypyrido[3,4-b]pyrazin-5-amine]
2 | 0.023 µM | 0.067 µM | > 44.4 µM | C[C@]1(c2cc(Nc3nccc4nc(C(F)(F)F)cnc34)ccc2F)N=C(N)[C@@]2(C)CC[C@@H]1S2(=O)=O [Example 86, N-(3-((1S,2R,5R)-4-amino-2,5-dimethyl-8,8-dioxido-8-thia-3-azabicyclo[3.2.1]oct-3-en-2-yl)-4-fluorophenyl)-2-(trifluoromethyl)pyrido[3,4-b]pyrazin-5-amine]
3 | 0.084 µM | 0.313 µM | > 44.4 µM | C[C@]12CC[C@H]([C@@](C)(c3cc(Nc4nccc5nc(C(F)(F)F)cnc45)ccc3F)N=C1N)S2(=O)=O [Example 87, N-(3-((1R,2R,5S)-4-amino-2,5-dimethyl-8,8-dioxido-8-thia-3-azabicyclo[3.2.1]oct-3-en-2-yl)-4-fluorophenyl)-2-(trifluoromethyl)pyrido[3,4-b]pyrazin-5-amine]
4 | 0.057 µM | 0.02 µM | 3420 µM | COCc1ccc(C(=O)Nc2ccc(F)c([C@@]3(C)N=C(N)[C@@]4(C)CC[C@@H]3S4(=O)=O)c2)nc1 [Example 90, N-(3-((1S,2R,5R)-4-amino-2,5-dimethyl-8,8-dioxido-8-thia-3-azabicyclo[3.2.1]oct-3-en-2-yl)-4-fluorophenyl)-5-(methoxymethyl)-2-pyridinecarboxamide]
5 | 0.255 µM | 0.046 µM | 3260 µM | COCc1ccc(C(=O)Nc2ccc(F)c([C@@]3(C)N=C(N)[C@]4(C)CC[C@H]3S4(=O)=O)c2)nc1 [Example 91, N-(3-((1R,2R,5S)-4-amino-2,5-dimethyl-8,8-dioxido-8-thia-3-azabicyclo[3.2.1]oct-3-en-2-yl)-4-fluorophenyl)-5-(methoxymethyl)-2-pyridinecarboxamide]
6 | 0.04 µM | 0.035 µM | 1590 µM | Cc1cc(C(F)(F)F)cnc1C(=O)Nc1ccc(F)c([C@@]2(C)N=C(N)[C@]3(CF)CC[C@H]2S3(=O)=O)c1 [Example 93, N-(3-((1R,2R,5S)-4-amino-5-(fluoromethyl)-2-methyl-8,8-dioxido-8-thia-3-azabicyclo[3.2.1]oct-3-en-2-yl)-4-fluorophenyl)-3-methyl-5-(trifluoromethyl)-2-pyridinecarboxamide]
7 | 0.0005 µM | 0.0002 µM | 257 µM | CC#CCOc1cnc(C(=O)Nc2ccc(F)c([C@@]3(C)N=C(N)[C@@]4(CF)CC[C@@H]3S4(=O)=O)c2)cn1 [Example 94, N-(3-((1S,2R,5R)-4-amino-5-(fluoromethyl)-2-methyl-8,8-dioxido-8-thia-3-azabicyclo[3.2.1]oct-3-en-2-yl)-4-fluorophenyl)-5-(2-butyn-1-yloxy)-2-pyrazinecarboxamide]
8 | 0.007 µM | 0.003 µM | 603 µM | CC#CCOc1cnc(C(=O)Nc2ccc(F)c([C@@]3(C)N=C(N)[C@]4(CF)CC[C@H]3S4(=O)=O)c2)cn1 [Example 95, N-(3-((1R,2R,5S)-4-amino-5-(fluoromethyl)-2-methyl-8,8-dioxido-8-thia-3-azabicyclo[3.2.1]oct-3-en-2-yl)-4-fluorophenyl)-5-(2-butyn-1-yloxy)-2-pyrazinecarboxamide]
9 | 0.006 µM | 0.028 µM | 317 µM | COc1cnc2c(Nc3ccc(F)c([C@@]4(C)N=C(N)[C@@]5(CF)CC[C@@H]4S5(=O)=O)c3)ncc(F)c2c1 [Example 99, N-(3-((1S,2R,5R)-4-amino-5-(fluoromethyl)-2-methyl-8,8-dioxido-8-thia-3-azabicyclo[3.2.1]oct-3-en-2-yl)-4-fluorophenyl)-5-fluoro-3-methoxy-1,7-naphthyridin-8-amine]
10 | 0.026 µM | 0.012 µM | 1850 µM | CCc1ccc(C(=O)Nc2ccc(F)c([C@@]3(C)N=C(N)[C@@]4(CF)CC[C@@H]3S4(=O)=O)c2)nc1 [Example 101, N-(3-((1S,2R,5R)-4-amino-5-(fluoromethyl)-2-methyl-8,8-dioxido-8-thia-3-azabicyclo[3.2.1]oct-3-en-2-yl)-4-fluorophenyl)-5-ethyl-2-pyridinecarboxamide]
11 | 0.008 µM | 0.007 µM | > 400 µM | C[C@]1(c2cc(NC(=O)c3ncc(C(F)(F)F)cc3Cl)ccc2F)N=C(N)[C@@]2(CF)CC[C@@H]1S2(=O)=O [Example 108, N-(3-((1S,2R,5R)-4-amino-5-(fluoromethyl)-2-methyl-8,8-dioxido-8-thia-3-azabicyclo[3.2.1]oct-3-en-2-yl)-4-fluorophenyl)-3-chloro-5-(trifluoromethyl)-2-pyridinecarboxamide]
12 | 0.002 µM | 0.004 µM | 957 µM | C[C@]1(c2cc(NC(=O)c3ccc(C#N)cn3)ccc2F)N=C(N)[C@@]2(CF)CC[C@@H]1S2(=O)=O [Example 111, N-(3-((1S,2R,5R)-4-amino-5-(fluoromethyl)-2-methyl-8,8-dioxido-8-thia-3-azabicyclo[3.2.1]oct-3-en-2-yl)-4-fluorophenyl)-5-cyano-2-pyridinecarboxamide]
13 | 0.41 µM | 0.15 µM | > 400 µM | C[C@]1(c2cc(NC(=O)c3ccc(C(F)(F)F)cc3F)ccc2F)N=C(N)[C@@]2(C)CC[C@@H]1S2(=O)=O [Example 121, N-(3-((1S,2R,5R)-4-amino-2,5-dimethyl-8,8-dioxido-8-thia-3-azabicyclo[3.2.1]oct-3-en-2-yl)-4-fluorophenyl)-2-fluoro-4-(trifluoromethyl)benzamide]
14 | 0.905 µM | 0.255 µM | > 400 µM | C[C@]12CC[C@H]([C@@](C)(c3cc(NC(=O)c4ccc(C(F)(F)F)cc4F)ccc3F)N=C1N)S2(=O)=O [Example 122, N-(3-((1R,2R,5S)-4-amino-2,5-dimethyl-8,8-dioxido-8-thia-3-azabicyclo[3.2.1]oct-3-en-2-yl)-4-fluorophenyl)-2-fluoro-4-(trifluoromethyl)benzamide]
15 | 0.13 µM | 0.083 µM | 1620 µM | COc1ccc(C(=O)Nc2ccc(F)c([C@@]3(C)N=C(N)[C@@]4(C)CC[C@@H]3S4(=O)=O)c2)c(F)c1 [Example 123, N-(3-((1S,2R,5R)-4-amino-2,5-dimethyl-8,8-dioxido-8-thia-3-azabicyclo[3.2.1]oct-3-en-2-yl)-4-fluorophenyl)-2-fluoro-4-methoxybenzamide]
16 | 0.588 µM | 0.103 µM | 4440 µM | COc1ccc(C(=O)Nc2ccc(F)c([C@@]3(C)N=C(N)[C@]4(C)CC[C@H]3S4(=O)=O)c2)c(F)c1 [Example 124, N-(3-((1R,2R,5S)-4-amino-2,5-dimethyl-8,8-dioxido-8-thia-3-azabicyclo[3.2.1]oct-3-en-2-yl)-4-fluorophenyl)-2-fluoro-4-methoxybenzamide]
17 | 0.103 µM | 0.065 µM | > 400 µM | C[C@]1(c2cc(NC(=O)c3c(F)cc(Br)cc3F)ccc2F)N=C(N)[C@@]2(C)CC[C@@H]1S2(=O)=O [Example 125, N-(3-((1S,2R,5R)-4-amino-2,5-dimethyl-8,8-dioxido-8-thia-3-azabicyclo[3.2.1]oct-3-en-2-yl)-4-fluorophenyl)-4-bromo-2,6-difluorobenzamide]
18 | 0.315 µM | 0.073 µM | 2200 µM | C[C@]12CC[C@H]([C@@](C)(c3cc(NC(=O)c4c(F)cc(Br)cc4F)ccc3F)N=C1N)S2(=O)=O [Example 126, N-(3-((1R,2R,5S)-4-amino-2,5-dimethyl-8,8-dioxido-8-thia-3-azabicyclo[3.2.1]oct-3-en-2-yl)-4-fluorophenyl)-4-bromo-2,6-difluorobenzamide]
19 | 0.056 µM | 0.025 µM | > 400 µM | C[C@]1(c2cc(NC(=O)c3ccc(C#N)cc3F)ccc2F)N=C(N)[C@@]2(C)CC[C@@H]1S2(=O)=O [Example 127, N-(3-((1S,2R,5R)-4-amino-2,5-dimethyl-8,8-dioxido-8-thia-3-azabicyclo[3.2.1]oct-3-en-2-yl)-4-fluorophenyl)-4-cyano-2-fluorobenzamide]
20 | 0.123 µM | 0.037 µM | > 400 µM | C[C@]12CC[C@H]([C@@](C)(c3cc(NC(=O)c4ccc(C#N)cc4F)ccc3F)N=C1N)S2(=O)=O [Example 128, N-(3-((1R,2R,5S)-4-amino-2,5-dimethyl-8,8-dioxido-8-thia-3-azabicyclo[3.2.1]oct-3-en-2-yl)-4-fluorophenyl)-4-cyano-2-fluorobenzamide]
21 | 0.005 µM | 0.004 µM | 363 µM | C[C@]1(c2cc(Nc3ncnc4cc(Cl)cnc34)ccc2F)N=C(N)[C@@]2(C)CC[C@@H]1S2(=O)=O [Example 130, N-(3-((1S,2R,5R)-4-amino-2,5-dimethyl-8,8-dioxido-8-thia-3-azabicyclo[3.2.1]oct-3-en-2-yl)-4-fluorophenyl)-7-chloropyrido[3,2-d]pyrimidin-4-amine]
